Laboratory results as given in patent US7709444B2, “Echinocandin pharmaceutical formulations containing micelle-forming surfactants” (Pfizer Inc., priority 1999, dated 2010).
*1 amine or outer side, *2 acyl side, *3 side chain or, on linkers, in order; H or OH if unused. Where a SMILES comes first, the peptide text is derived from it. Bridges are numbered along the chain shown (N, C = ends). [ ]: non-standard residue; d: D form. The star is where a group is joined. ξ: configuration not given here. pTerphenylCO(4''-OnC5H11) = CCCCCOc1ccc(-c2ccc(-c3ccc(C(=O)*)cc3)cc2)cc1; ξOrn(4,5-diOH) = O=C(C(CC(O)C(O)N[*:3])N[*:1])[*:2]; ξhTyr(βξ-OH,γξ-OH) = NC(C(=O)O)C(O)C(O)c1ccc(O)cc1; ξPro(3ξ-OH,4ξ-Me) = CC1CNC(C(=O)O)C1O; Hyp = O=C(O)[CH]1C[CH](O)CN1

Columns and labels:
[1] = Stability of solution formulations, related substances by reverse phase HPLC, storage at 40° C.; assay type: physicochemical
Method: The stability of solution and freeze-dried formulations was evaluated by monitoring a sample of the formulation for the percent increase in related substances by reverse phase HPLC at initial, 2 weeks and 4 weeks of storage at 40° C.

[2] = Solubility studies of Com 6(a) in surfactant test solutions, reverse phase HPLC; assay type: physicochemical; conditions: room temperature
Method: Solubility studies were performed at room temperature by transferring 5 ml of test solution (surfactant in water optionally containing a bulking agent, a buffer or a stabilizing agent) and 50 mg of Com 6(a) into a glass test tube. The test tubes were agitated overnight and examined for excess solid. Test tubes containing excess solid were removed for analysis. […] All samples were allowed to stand 1 h, supernatant was removed, filtered and analyzed by reverse phase HPLC to determine the potency of Com 6(a) per Ml of solution.

## CCCCCOc1ccc(-c2ccc(-c3ccc(C(=O)NC4CC(O)C(O)NC(=O)C5C(O)C(C)CN5C(=O)C(C(C)O)NC(=O)C(C(O)C(O)c5ccc(O)cc5)NC(=O)C5CC(O)CN5C(=O)C(C(C)O)NC4=O)cc3)cc2)cc1 (stereo not drawn) [Compound 6(a)] ({pTerphenylCO(4''-OnC5H11)}-[ξOrn(4,5-diOH)]T[Hyp][ξhTyr(βξ-OH,γξ-OH)]T[ξPro(3ξ-OH,4ξ-Me)]; lactam 1-C; configuration not given here)
[1]; 6(a) 1 mg/ml, Poly 80(25), Ace(0.6), Man(50), 0 wks
  Percent Related Substances: 3.15%
[1]; 6(a) 1 mg/ml, Poly 80(25), Ace(0.6), Man(50), 2 wks
  Percent Related Substances: 11.37%
[1]; 6(a) 1 mg/ml, Poly 80(25), Ace(0.6), Man(50), 4 wks
  Percent Related Substances: 19.44%
[1]; 6(a) 1 mg/ml, Poly 80(25), Ace(3), Man(50), 0 wks
  Percent Related Substances: 3.33%
[1]; 6(a) 1 mg/ml, Poly 80(25), Ace(3), Man(50), 2 wks
  Percent Related Substances: 12.20%
[1]; 6(a) 1 mg/ml, Poly 80(25), Ace(3), Man(50), 4 wks
  Percent Related Substances: 18.29%
[1]; 6(a) 1 mg/ml, Poly 80(25), Ace(6), Man(50), 0 wks
  Percent Related Substances: 3.27%
[1]; 6(a) 1 mg/ml, Poly 80(25), Ace(6), Man(50), 2 wks
  Percent Related Substances: 11.07%
[1]; 6(a) 1 mg/ml, Poly 80(25), Ace(6), Man(50), 4 wks
  Percent Related Substances: 19.59%
[1]; 6(a) 1 mg/ml, Poly 80(25), Cit(1.9), Man(50), 0 wks
  Percent Related Substances: 3.42%
[1]; 6(a) 1 mg/ml, Poly 80(25), Cit(1.9), Man(50), 2 wks
  Percent Related Substances: 8.91%
[1]; 6(a) 1 mg/ml, Poly 80(25), Cit(1.9), Man(50), 4 wks
  Percent Related Substances: 18.04%
[1]; 6(a) 1 mg/ml, Poly 80(25), Cit(9.6), Man(50), 0 wks
  Percent Related Substances: 3.36%
[1]; 6(a) 1 mg/ml, Poly 80(25), Cit(9.6), Man(50), 2 wks
  Percent Related Substances: 9.25%
[1]; 6(a) 1 mg/ml, Poly 80(25), Cit(9.6), Man(50), 4 wks
  Percent Related Substances: 17.29%
[1]; 6(a) 1 mg/ml, Poly 80(25), Cit(19.2), Man(50), 0 wks
  Percent Related Substances: 3.47%
[1]; 6(a) 1 mg/ml, Poly 80(25), Cit(19.2), Man(50), 2 wks
  Percent Related Substances: 9.70%
[1]; 6(a) 1 mg/ml, Poly 80(25), Cit(19.2), Man(50), 4 wks
  Percent Related Substances: 18.02%
[1]; 6(a) 10 mg/ml, Poly 80(5) + Poly 20(20), Ace(6), 0 wks
  Percent Related Substances: 2.67%
[1]; 6(a) 10 mg/ml, Poly 80(5) + Poly 20(20), Ace(6), 2 wks
  Percent Related Substances: 9.77%
[1]; 6(a) 10 mg/ml, Poly 80(5) + Poly 20(20), Ace(6), 4 wks
  Percent Related Substances: 15.57%
[1]; 6(a) 10 mg/ml, Poly 80(15) + Poly 20(10), Ace(6), 0 wks
  Percent Related Substances: 2.70%
[1]; 6(a) 10 mg/ml, Poly 80(15) + Poly 20(10), Ace(6), 2 wks
  Percent Related Substances: 10.55%
[1]; 6(a) 10 mg/ml, Poly 80(15) + Poly 20(10), Ace(6), 4 wks
  Percent Related Substances: 15.34%
[1]; 6(a) 10 mg/ml, Poly 80(20) + Poly 20(5), Ace(6), 0 wks
  Percent Related Substances: 2.65%
[1]; 6(a) 10 mg/ml, Poly 80(20) + Poly 20(5), Ace(6), 2 wks
  Percent Related Substances: 11.06%
[1]; 6(a) 10 mg/ml, Poly 80(20) + Poly 20(5), Ace(6), 4 wks
  Percent Related Substances: 15.44%
[1]; 6(a) 10 mg/ml, Poly 80(25) only, no buffer, 0 wks
  Percent Related Substances: 3.62%
[1]; 6(a) 10 mg/ml, Poly 80(25) only, no buffer, 2 wks
  Percent Related Substances: 18.71%
[1]; 6(a) 10 mg/ml, Poly 80(25) only, no buffer, 4 wks
  Percent Related Substances: 27.91%
[1]; 6(a) 10 mg/ml, Poly 80(25), Ace(3), 0 wks
  Percent Related Substances: 2.51%
[1]; 6(a) 10 mg/ml, Poly 80(25), Ace(3), 2 wks
  Percent Related Substances: 9.46%
[1]; 6(a) 10 mg/ml, Poly 80(25), Ace(3), 4 wks
  Percent Related Substances: 14.39%
[1]; 6(a) 10 mg/ml, Poly 80(25), Ace(6), co-solvent 20% PEG400, 0 wks
  Percent Related Substances: 2.83%
[1]; 6(a) 10 mg/ml, Poly 80(25), Ace(6), co-solvent 20% PEG400, 2 wks
  Percent Related Substances: 9.69%
[1]; 6(a) 10 mg/ml, Poly 80(25), Ace(6), co-solvent 20% PEG400, 4 wks
  Percent Related Substances: 14.35%
[1]; 6(a) 10 mg/ml, Poly 80(25), Ace(6), co-solvent 20% PPG, 0 wks
  Percent Related Substances: 2.71%
[1]; 6(a) 10 mg/ml, Poly 80(25), Ace(6), co-solvent 20% PPG, 2 wks
  Percent Related Substances: 10.58%
[1]; 6(a) 10 mg/ml, Poly 80(25), Ace(6), co-solvent 20% PPG, 4 wks
  Percent Related Substances: 13.40%
[1]; 6(a) 10 mg/ml, Poly 80(25), Ace(6), co-solvent 40% PEG400, 0 wks
  Percent Related Substances: 2.57%
[1]; 6(a) 10 mg/ml, Poly 80(25), Ace(6), co-solvent 40% PEG400, 2 wks
  Percent Related Substances: 10.38%
[1]; 6(a) 10 mg/ml, Poly 80(25), Ace(6), co-solvent 40% PEG400, 4 wks
  Percent Related Substances: 13.36%
[1]; 6(a) 10 mg/ml, Poly 80(25), Ace(6), co-solvent 40% PPG, 0 wks
  Percent Related Substances: 2.72%
[1]; 6(a) 10 mg/ml, Poly 80(25), Ace(6), co-solvent 40% PPG, 2 wks
  Percent Related Substances: 9.84%
[1]; 6(a) 10 mg/ml, Poly 80(25), Ace(6), co-solvent 40% PPG, 4 wks
  Percent Related Substances: 12.65%
[1]; 6(a) 10 mg/ml, Poly 80(25), no buffer, Man(50), 0 wks
  Percent Related Substances: 3.68%
[1]; 6(a) 10 mg/ml, Poly 80(25), no buffer, Man(50), 2 wks
  Percent Related Substances: 16.65%
[1]; 6(a) 10 mg/ml, Poly 80(25), no buffer, Man(50), 4 wks
  Percent Related Substances: 23.68%
[1]; 6(a) 10 mg/ml, Poly 80(25), no buffer, co-solvent 1% PEG 3350, 0 wks
  Percent Related Substances: 3.68%
[1]; 6(a) 10 mg/ml, Poly 80(25), no buffer, co-solvent 1% PEG 3350, 2 wks
  Percent Related Substances: 21.56%
[1]; 6(a) 10 mg/ml, Poly 80(25), no buffer, co-solvent 40% PEG 400, 0 wks
  Percent Related Substances: 3.73%
[1]; 6(a) 10 mg/ml, Poly 80(25), no buffer, co-solvent 40% PEG 400, 2 wks
  Percent Related Substances: 15.26%
[1]; 6(a) 10 mg/ml, Poly 80(25), no buffer, co-solvent 40% PEG 400, 4 wks
  Percent Related Substances: 23.99%
[2]; Poly 20 [5]/Poly 80 [5]
  Comp6(a) Potency (solubility): 4800 µg/mL
[2]; Poly 20 [5]/Poly 80 [10]
  Comp6(a) Potency (solubility): 8000 µg/mL
